# Laboratory results: the NIST ThermoML archive (doi:10.1016/j.jct.2005.08.018)
# Numbers after ± are expanded uncertainties.
# Legend:
# [1] = 298.15 K; 101 kPa; Liquid
# [2] = mn = molality of the nth substance listed, in mol/kg; conditions: 298.15 K, 101 kPa, Liquid
smiles,measurement,setting,value
c1ccccc1 [benzene],mass density,[1],873.71 ± 0.78 kg/m3
same,speed of sound,[1],1298.2 ± 2.8 m/s
c1ccccc1 [benzene] + CCCC[N+](CCCC)(CCCC)CCCC.[Br-],mass density,[2]; m2 = 0,873.71 ± 0.78 kg/m3
same,speed of sound,[2]; m2 = 0,1298.2 ± 2.8 m/s
CCCC[N+](CCCC)(CCCC)CCCC.[Br-] [tetrabutylammonium bromide] + c1ccccc1,mass density,[2]; m1 = 0.0154,874.64 ± 0.78 kg/m3
same,speed of sound,[2]; m1 = 0.0154,1298.6 ± 2.8 m/s
same,mass density,[2]; m1 = 0.0485,876.48 ± 0.78 kg/m3
same,speed of sound,[2]; m1 = 0.0485,1299.4 ± 2.8 m/s
same,mass density,[2]; m1 = 0.0662,877.4 ± 0.77 kg/m3
same,speed of sound,[2]; m1 = 0.0662,1300.6 ± 2.8 m/s
same,mass density,[2]; m1 = 0.0827,878.36 ± 0.77 kg/m3
same,speed of sound,[2]; m1 = 0.0827,1300.8 ± 2.8 m/s
same,mass density,[2]; m1 = 0.1724,883.19 ± 0.76 kg/m3
same,speed of sound,[2]; m1 = 0.1724,1301.4 ± 2.8 m/s
same,mass density,[2]; m1 = 0.3622,893.1 ± 0.74 kg/m3
same,speed of sound,[2]; m1 = 0.3622,1310.1 ± 2.8 m/s
same,mass density,[2]; m1 = 0.5773,903.19 ± 0.72 kg/m3
same,speed of sound,[2]; m1 = 0.5773,1316.4 ± 2.8 m/s
same,mass density,[2]; m1 = 0.8062,913.08 ± 0.7 kg/m3
same,speed of sound,[2]; m1 = 0.8062,1324.6 ± 2.9 m/s
ClC(Cl)(Cl)Cl [tetrachloromethane],mass density,[1],1584.35 ± 2.2 kg/m3
same,speed of sound,[1],921.7 ± 2.4 m/s
ClC(Cl)(Cl)Cl [tetrachloromethane] + CCCC[N+](CCCC)(CCCC)CCCC.[Br-],mass density,[2]; m2 = 0,1584.35 ± 2.2 kg/m3
same,speed of sound,[2]; m2 = 0,921.7 ± 2.4 m/s
same,mass density,[2]; m2 = 0.0289,1578.53 ± 2.2 kg/m3
same,speed of sound,[2]; m2 = 0.0289,926.4 ± 2.4 m/s
same,mass density,[2]; m2 = 0.0459,1575.17 ± 2.2 kg/m3
same,speed of sound,[2]; m2 = 0.0459,929.4 ± 2.4 m/s
same,mass density,[2]; m2 = 0.0609,1572.21 ± 2.2 kg/m3
same,speed of sound,[2]; m2 = 0.0609,931.7 ± 2.4 m/s
same,mass density,[2]; m2 = 0.0759,1569.3 ± 2.2 kg/m3
same,speed of sound,[2]; m2 = 0.0759,933.7 ± 2.4 m/s
same,mass density,[2]; m2 = 0.1041,1563.88 ± 2.2 kg/m3
same,speed of sound,[2]; m2 = 0.1041,939.5 ± 2.4 m/s
same,mass density,[2]; m2 = 0.3475,1520.79 ± 2 kg/m3
same,speed of sound,[2]; m2 = 0.3475,982 ± 2.4 m/s
same,mass density,[2]; m2 = 0.5626,1488.36 ± 1.9 kg/m3
same,speed of sound,[2]; m2 = 0.5626,1017.5 ± 2.5 m/s
same,mass density,[2]; m2 = 0.8165,1456.84 ± 1.8 kg/m3
same,speed of sound,[2]; m2 = 0.8165,1057.6 ± 2.5 m/s
